# Assay results from patent US20110224210A1, “NOVEL BIS-AMIDES AS ANTI-MALARIAL AGENTS” (priority 2008, published 2011).
# Tested on: P. falciparum K1 (strain resistant to chloroquine and pyrimethamine), erythrocytic stages
# Test: Plasmodium falciparum in vitro assay, [3H] hypoxanthine incorporation
# Assay type: cell-based
# Settings: Plasmodium falciparum, K1, P. falciparum strain K1; [3H] hypoxanthine incorporation; read-out: IC50 (nM) on K1
# Procedure: In Vitro Antimalarial Activity: Plasmodium falciparum In Vitro Assay
# In vitro activity against erythrocytic stages of P. falciparum is determined using a [^3H] hypoxanthine incorporation assay. One strain resistant to chloroquine and pyrimethamine (P. falciparum K1) is used in the assays, and all test compounds are compared for activity with the standard drugs chloroquine (sigma C6628) and artemisinin (sigma-36, 159-3). Compounds are diluted in DMSO to 1 mM and added to parasite cultures incubated in RPMI 1640 medium without hypoxanthine, supplemented with HEPES (5.94 g/L), NaHCO3 (2.1 g/L), neomycin (100 U/mL), Albumax (5 g/L) and washed human red cells at 2.5% haematocrit (0.3% parasitaemia). Seven serial doubling dilutions of each compound are prepared in 96-well microtitre plates and incubated in a humidifying atmosphere at 37° C.; 4% CO2, 3% O2, 93% N2.
# After 48 h, 50 μl of [3H] hypoxanthine (0.5 μCi) is added to each well of a plate. The plates are incubated for a further 24 h under the same conditions. The plates are then harvested with a Betaplate cell harvester (Wallac) and washed with distilled water. The dried filters are inserted into a plastic foil with 10 mL of scintillation fluid, and counted in a Betaplate liquid scintillation counter. IC50 values are calculated from sigmoidal inhibition curves using Microsoft Excel.
row,IC50 [nM],SMILES
1,163,"Cc1ccc(C=CC(=O)N(Cc2ccc(-c3ccccn3)cc2)[C@@H](Cc2ccccc2)C(=O)N2CCC(N(C)C)CC2)nc1 [Example 15, (S)-N-[1-Benzyl-2-(4-dimethylamino-piperidin-1-yl)-2-oxo-ethyl]-3-(5-methyl-pyridin-2-yl)-N-(4-pyridin-2-yl-benzyl)-acrylamide]"
2,115,"COc1ccc(C=CC(=O)N(Cc2ccc(-c3ccccn3)cc2)[C@@H](Cc2ccccc2)C(=O)N2CCC(N(C)C)CC2)cn1 [Example 16, (S)-N-[1-Benzyl-2-(4-dimethylamino-piperidin-1-yl)-2-oxo-ethyl]-3-(6-methoxy-pyridin-3-yl)-N-(4-pyridin-2-yl-benzyl)-acrylamide]"
3,113,"CN(C)C1CCN(C(=O)[C@H](Cc2ccccc2)N(Cc2ccc(-c3ccccn3)cc2)C(=O)C=Cc2ccc(C(F)(F)F)cn2)CC1 [Example 17, (S)-N-[1-Benzyl-2-(4-dimethylamino-piperidin-1-yl)-2-oxo-ethyl]-N-(4-pyridin-2-yl-benzyl)-3-(5-trifluoromethyl-pyridin-2-yl)-acrylamide]"
4,273,"Cc1c(C=CC(=O)N(Cc2ccc(-c3ccccn3)cc2)[C@@H](Cc2ccccc2)C(=O)N2CCC(N(C)C)CC2)cnn1C [Example 18, (S)-N-[1-Benzyl-2-(4-dimethylamino-piperidin-1-yl)-2-oxo-ethyl]-3-(1,5-dimethyl-1H-pyrazol-4-yl)-N-(4-pyridin-2-yl-benzyl)-acrylamide]"
5,250,"CN(C)C1CCN(C(=O)[C@H](Cc2ccccc2)N(Cc2ccc(-c3ccncc3)cc2)C(=O)C=Cc2ccn(C)n2)CC1 [Example 19, (S)-N-[1-Benzyl-2-(4-dimethylamino-piperidin-1-yl)-2-oxo-ethyl]-3-(1-methyl-1H-pyrazol-3-yl)-N-(4-pyridin-4-yl-benzyl)-acrylamide]"
6,116,"Cc1cc(C=CC(=O)N(Cc2ccc(-c3ccncc3)cc2)[C@@H](Cc2ccccc2)C(=O)N2CCC(N(C)C)CC2)n(C)n1 [Example 20, (S)-N-[1-Benzyl-2-(4-dimethylamino-piperidin-1-yl)-2-oxo-ethyl]-3-(2,5-dimethyl-2H-pyrazol-3-yl)-N-(4-pyridin-4-yl-benzyl)-acrylamide]"
7,14,"Cc1nn(C)c(C)c1C=CC(=O)N(Cc1ccc(-c2ccncc2)cc1)[C@@H](Cc1ccccc1)C(=O)N1CCC(N(C)C)CC1 [Example 21, (S)-N-[1-Benzyl-2-(4-dimethylamino-piperidin-1-yl)-2-oxo-ethyl]-N-(4-pyridin-4-yl-benzyl)-3-(1,3,5-trimethyl-1H-pyrazol-4-yl)-acrylamide]"
8,60,"Cc1nc(C)c(C=CC(=O)N(Cc2ccc(-c3ccncc3)cc2)[C@@H](Cc2ccccc2)C(=O)N2CCC(N(C)C)CC2)s1 [Example 22, (S)-N-[1-Benzyl-2-(4-dimethylamino-piperidin-1-yl)-2-oxo-ethyl]-3-(2,4-dimethyl-thiazol-5-yl)-N-(4-pyridin-4-yl-benzyl)-acrylamide]"
9,141,"Cc1nc(C=CC(=O)N(Cc2ccc(-c3ccncc3)cc2)[C@@H](Cc2ccccc2)C(=O)N2CCC(N(C)C)CC2)cs1 [Example 23, (S)-N-[1-Benzyl-2-(4-dimethylamino-piperidin-1-yl)-2-oxo-ethyl]-3-(2-methyl-thiazol-4-yl)-N-(4-pyridin-4-yl-benzyl)-acrylamide]"
10,103,"Cc1noc(C)c1C=CC(=O)N(Cc1ccc(-c2ccncc2)cc1)[C@@H](Cc1ccccc1)C(=O)N1CCC(N(C)C)CC1 [Example 24, (S)-N-[1-Benzyl-2-(4-dimethylamino-piperidin-1-yl)-2-oxo-ethyl]-3-(3,5-dimethyl-isoxazol-4-yl)-N-(4-pyridin-4-yl-benzyl)-acrylamide]"
11,90,"Cc1nc(C=CC(=O)N(Cc2ccc(-c3ccncc3)cc2)[C@@H](Cc2ccccc2)C(=O)N2CCC(N(C)C)CC2)c(C)o1 [Example 25, (S)-N-[1-Benzyl-2-(4-dimethylamino-piperidin-1-yl)-2-oxo-ethyl]-3-(2,5-dimethyl-oxazol-4-yl)-N-(4-pyridin-4-yl-benzyl)-acrylamide]"
12,465,"COc1ccc(C=CC(=O)N(Cc2ccc(-c3ccncc3)cc2)[C@@H](Cc2ccccc2)C(=O)N2CCC(N(C)C)CC2)nn1 [Example 26, (S)-N-[1-Benzyl-2-(4-dimethylamino-piperidin-1-yl)-2-oxo-ethyl]-3-(6-methoxy-pyridazin-3-yl)-N-(4-pyridin-4-yl-benzyl)-acrylamide]"
13,67,"Cc1ccc(C=CC(=O)N(Cc2ccc(-c3ccncc3)cc2)[C@@H](Cc2ccccc2)C(=O)N2CCC(N(C)C)CC2)cn1 [Example 27, (S)-N-[1-Benzyl-2-(4-dimethylamino-piperidin-1-yl)-2-oxo-ethyl]-3-(6-methyl-pyridin-3-yl)-N-(4-pyridin-4-yl-benzyl)-acrylamide]"
14,81,"Cc1ccc(C=CC(=O)N(Cc2ccc(-c3ccncc3)cc2)[C@@H](Cc2ccccc2)C(=O)N2CCC(N(C)C)CC2)nc1 [Example 28, (S)-N-[1-Benzyl-2-(4-dimethylamino-piperidin-1-yl)-2-oxo-ethyl]-3-(5-methyl-pyridin-2-yl)-N-(4-pyridin-4-yl-benzyl)-acrylamide]"
15,34,"COc1ccc(C=CC(=O)N(Cc2ccc(-c3ccncc3)cc2)[C@@H](Cc2ccccc2)C(=O)N2CCC(N(C)C)CC2)cn1 [Example 29, (S)-N-[1-Benzyl-2-(4-dimethylamino-piperidin-1-yl)-2-oxo-ethyl]-3-(6-methoxy-pyridin-3-yl)-N-(4-pyridin-4-yl-benzyl)-acrylamide]"
16,34,"CN(C)C1CCN(C(=O)[C@H](Cc2ccccc2)N(Cc2ccc(-c3ccncc3)cc2)C(=O)C=Cc2ccc(C(F)(F)F)cn2)CC1 [Example 30, (S)-N-[1-Benzyl-2-(4-dimethylamino-piperidin-1-yl)-2-oxo-ethyl]-N-(4-pyridin-4-yl-benzyl)-3-(5-trifluoromethyl-pyridin-2-yl)-acrylamide]"
17,54,"Cc1c(C=CC(=O)N(Cc2ccc(-c3ccncc3)cc2)[C@@H](Cc2ccccc2)C(=O)N2CCC(N(C)C)CC2)cnn1C [Example 31, (S)-N-[1-Benzyl-2-(4-dimethylamino-piperidin-1-yl)-2-oxo-ethyl]-3-(1,5-dimethyl-1H-pyrazol-4-yl)-N-(4-pyridin-4-yl-benzyl)-acrylamide]"
18,298,"COc1ncc(C=CC(=O)N(Cc2ccc(-c3ccncc3)cc2)[C@@H](Cc2ccccc2)C(=O)N2CCC(N(C)C)CC2)cn1 [Example 32, (S)-N-[1-Benzyl-2-(4-dimethylamino-piperidin-1-yl)-2-oxo-ethyl]-3-(2-methoxy-pyrimidin-5-yl)-N-(4-pyridin-4-yl-benzyl)-acrylamide]"
19,319,"CC(=O)N1CCN(c2ccc(CN(C(=O)C=Cc3c(C)nn(C)c3C)[C@@H](Cc3ccccc3)C(=O)N3CCC(N(C)C)CC3)cc2)CC1 [Example 33, (S)-N-[4-(4-Acetyl-piperazin-1-yl)-benzyl]-N-[1-benzyl-2-(4-dimethylamino-piperidin-1-yl)-2-oxo-ethyl]-3-(1,3,5-trimethyl-1H-pyrazol-4-yl)-acrylamide]"
20,433,"COc1ccc(C=CC(=O)N(Cc2ccc(N3CCN(C(C)=O)CC3)cc2)[C@@H](Cc2ccccc2)C(=O)N2CCC(N(C)C)CC2)cn1 [Example 34, (S)-N-[4-(4-Acetyl-piperazin-1-yl)-benzyl]-N-[1-benzyl-2-(4-dimethylamino-piperidin-1-yl)-2-oxo-ethyl]-3-(6-methoxy-pyridin-3-yl)-acrylamide]"
21,317,"CC(=O)N1CCN(c2ccc(CN(C(=O)C=Cc3ccc(C(F)(F)F)cn3)[C@@H](Cc3ccccc3)C(=O)N3CCC(N(C)C)CC3)cc2)CC1 [Example 35, (S)-N-[4-(4-Acetyl-piperazin-1-yl)-benzyl]-N-[1-benzyl-2-(4-dimethylamino-piperidin-1-yl)-2-oxo-ethyl]-3-(5-trifluoromethyl-pyridin-2-yl)-acrylamide]"
22,173,"Cc1nn(C)c(C)c1C=CC(=O)N(Cc1ccc(-c2cncnc2)cc1)[C@@H](Cc1ccccc1)C(=O)N1CCC(N(C)C)CC1 [Example 36, (S)-N-[1-Benzyl-2-(4-dimethylamino-piperidin-1-yl)-2-oxo-ethyl]-N-(4-pyrimidin-5-yl-benzyl)-3-(1,3,5-trimethyl-1H-pyrazol-4-yl)-acrylamide]"
23,279,"Cc1nc(C)c(C=CC(=O)N(Cc2ccc(-c3cncnc3)cc2)[C@@H](Cc2ccccc2)C(=O)N2CCC(N(C)C)CC2)s1 [Example 37, (S)-N-[1-Benzyl-2-(4-dimethylamino-piperidin-1-yl)-2-oxo-ethyl]-3-(2,4-dimethyl-thiazol-5-yl)-N-(4-pyrimidin-5-yl-benzyl)-acrylamide]"
24,417,"Cc1noc(C)c1C=CC(=O)N(Cc1ccc(-c2cncnc2)cc1)[C@@H](Cc1ccccc1)C(=O)N1CCC(N(C)C)CC1 [Example 38, (S)-N-[1-Benzyl-2-(4-dimethylamino-piperidin-1-yl)-2-oxo-ethyl]-3-(3,5-dimethyl-isoxazol-4-yl)-N-(4-pyrimidin-5-yl-benzyl)-acrylamide]"
25,170,"CN(C)C1CCN(C(=O)[C@H](Cc2ccccc2)N(Cc2ccc(-c3cncnc3)cc2)C(=O)C=Cc2ccc(Cl)cn2)CC1 [Example 39, (S)-N-[1-Benzyl-2-(4-dimethylamino-piperidin-1-yl)-2-oxo-ethyl]-3-(5-chloro-pyridin-2-yl)-N-(4-pyrimidin-5-yl-benzyl)-acrylamide]"
